These results are taken from publication PMC7782499, “Progerinin, an optimized progerin-lamin A binding inhibitor, ameliorates premature senescence phenotypes of Hutchinson-Gilford progeria syndrome” (Communications Biology, 2021).

By fraction unbound is commonly meant the share of the substance not bound to proteins or other matrix.

Series [1] addresses CYP2C9 (Homo sapiens, UniProt P11712). Description: CYP inhibition, CYP2C9. Type of series: in vitro ADME. Set-up: unit not given here. The protocol:
(§1) At pre-set time-points, blood concentration of JH4 was determined by LC-MS/MS analysis[22],[23]. Other chemicals were also tested using similar protocol. In vitro ADME studies (plasma protein binding, CYP inhibition, microsomal stability, plasma stability, and hERG inhibition) were performed by New Drug Development Center (Daegu, Korea) using standard protocols[24],[25].

In series [2] the test system is Lmna G609G/+ mouse. Description: Life span of Lmna G609G/+ mice. The series is classed as in vivo. The text has this: Fig. 3 In vivo favorable effect of SLC-D011. A Gross morphology of Lmna^G609G/G609G mice (10 weeks old) was ameliorated after injection with SLC-D011. At the same age, the experimental group (D011) of mice were larger than vehicle-injected control (Con) subjects regardless of gender. B, C SLC-D011 increases body weight B and extends life span C of Lmna^G609G/G609G progeria model mouse (Con: n = 8; SLC-D011: n = 8). Compared with 14.8 weeks of average (ave) life span with maximum (max) life span of 15.5 weeks, 20 mg/kg of intraperitoneal (i.p) injection (twice a week) of SLC-D011 could extend the life span upto 19 weeks (max = 21 weeks). Lmna^G609G/G609G mice were injected with SLC-D011 from age of 5-week old, *p < 0.05. D Gross morphology of SLC-D011 injected Lmna^G609G/+ mouse. […] E SLC-D011 increases body weights of Lmna^G609G/+ mice (Con: n = 10; SLC-D011: n = 11), *p < 0.05. F Favorable effect of SLC-D011 on life span of Lmna^G609G/+ mice. Compared with vehicle-injected control group (ave = 46.7 weeks and max = 48 weeks), SLC-D011 treatment obviously extended the average life span to 63 weeks (max = 64 weeks). The injection was started from 32 weeks old, **p < 0.001. “Con” means vehicle (a solvent composed of DMSO and PBS)-injected mouse group. TEXT PRINTED IN THE PICTURE: (C) D011: Kaplan-Meier survival curve in Lmna^G609G/G609G: Ave=19; Kaplan-Meier survival curve in Lmna^G609G/G609G: Max=21 | (F) D011: Kaplan-Meier survival curve in Lmna^G609G/+: Ave=63; Kaplan-Meier survival curve in Lmna^G609G/+: Max=64 DOUBTS OF THE COPYIST ABOUT THIS PICTURE: Panels C and F: the Ave/Max labels are not printed with a group name. They are assigned to D011 (solid curve) or Con (dashed curve) only by their position beside the curves. / Panel C Ave=14.8, Max=15.5 and panel F Ave=46.7, Max=48 stand beside the dashed Con curve. They are left out because Con is the control group, not a substance. / No unit is printed with the Ave/Max values. Only the axis reads Age (weeks).
Animal experiments were performed in a facility certified by the Association for Assessment and Accreditation of Laboratory Animal Care in compliance with animal policies approved by Pusan National University. The mouse work was performed under the study protocol PNU-2019-2181, as approved by the Institutional Animal Care and Use Committee. Lmna^G609G/609G mice were generated by timed mating of heterozygous Lmna^G609G/+ provided by Carlos López-Otín (Universidad de Oviedo, Asturias, Oviedo, Spain). SLC-D011 was mixed with dimethyl sulfoxide (DMSO) and phosphate-buffered saline (PBS). It was then intraperitoneally injected into mice (20 mg/kg twice per week from 5-week-old). SLC-D011 and lonafarnib were orally administrated to mice daily at a concentration of 10 mg/ml in monoolein-based solution. Lonafarnib was generously provided by Merck, the Progeria Research Foundation (PRF) and the PRF Lonafarnib Pre-clinical Drug Supply Program. Control mice were treated with monoolein-based solution alone in the same way. Lmna^G609G/609G mice were treated with clear chemical solution throughout the life span, starting from 5 weeks of age. Lmna^G609G/+ mice were treated via intraperitoneal and oral administrations, starting from 32 weeks of age.
Fig. S10. Or al administration of SLC-D011 suppresses premature aging features of LmnaG609G/+ mi c e . A.
Gross morphology of SLC-D011 treated Lmna G609G/+ mice at 36 weeks old. […]

The nature of series [3]: Plasma protein binding, rat. Type of series: in vitro ADME. The protocol:
as §1

Chain of CYP2C9 (P11712 whole entry): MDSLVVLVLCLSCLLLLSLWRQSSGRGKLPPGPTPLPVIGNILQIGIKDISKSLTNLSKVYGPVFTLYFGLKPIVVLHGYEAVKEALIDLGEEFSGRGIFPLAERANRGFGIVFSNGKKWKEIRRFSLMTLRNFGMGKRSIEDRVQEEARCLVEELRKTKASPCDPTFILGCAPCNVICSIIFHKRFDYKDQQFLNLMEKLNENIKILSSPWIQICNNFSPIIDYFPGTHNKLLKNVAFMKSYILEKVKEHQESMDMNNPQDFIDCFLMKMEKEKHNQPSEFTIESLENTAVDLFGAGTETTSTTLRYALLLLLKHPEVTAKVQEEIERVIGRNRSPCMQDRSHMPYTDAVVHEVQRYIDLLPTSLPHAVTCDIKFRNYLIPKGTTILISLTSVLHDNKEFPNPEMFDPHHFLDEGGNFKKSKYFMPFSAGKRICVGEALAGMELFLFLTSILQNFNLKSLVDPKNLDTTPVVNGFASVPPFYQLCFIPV

In turn, `CC1(C)Oc2cc3oc(=O)ccc3cc2C[C@@H]1OC/C=C/c1ccccc1` [SLC-D011] displayed a CYP inhibition in series [1] of 78.4. Besides, the Average life span in series [2] (i.p. injection from 32 weeks old) is on record as 63 weeks; in series [2] (oral 50 mg/kg daily, 50 mg/kg), 64.9 weeks; in series [2] (oral 50 mg/kg daily, listed as progerinin, 50 mg/kg) it was 65 weeks. In addition, the “Extension of life span” value in series [2] (i.p. injection, longer than control (untreated)) is given as ~ 16 weeks. This compound also registered a Maximum life span in series [2] (oral 50 mg/kg daily) of 65.5 weeks. Moreover, the fraction unbound in series [3] is 0.002.
